Values after ≈ are worked out from the molar mass of the structure shown.
Assay: Water solubility quantified by LC-MS/MS
Format: physicochemical
Settings: for solubility: water
Method: We quantified the solubilities of AdiponRons by LC-MS/MS. Briefly, water (HPLC grade) was added in 50–100 μl increments to a glass vial containing either AdipoRon (0.97 mg) or AdipoRonPEG5 (1.69 mg), vortexed until the compound started to dissolve (AdipoRon, […]; AdipoRonPEG5, […]). The suspension was then stirred overnight away from light. The solution was transferred to Teflon tubes and centrifuged at 15,000 rpm at room temperature for 10 min. We then collected the supernatant (aqueous saturated solution) for dilution and analysis.
For standards, 98 μl water was added to an Eppendorf tube and combined with 200 μl of methanol containing 0.15% formic acid and 75 ng/ml […] Standard (IS, n-benzeylbenzamide in MeOH. IS final conc. = 50 ng/ml). Samples were spiked with 2 μl of IS. The samples were vortexed 15 s, and spun 2 × 13,200 rpm in a standard microcentrifuge. The supernatant was then analyzed by LC-MS/MS on a QTrap 4000 system (AB Sciex) with the following settings: Ion Source/Gas Parameters: CUR = 25, CAD = medium, IS = 5,000, TEM = 500, GS1 = 70, GS2 = 70. Buffer A: Water + 0.1% formic acid + 2 mM NH4OAC; Buffer B: methanol + 0.1% formic acid + 2 mM NH4OAC; flow rate 1.5 ml/min; Agilent C18 XDB column, 5 micron packing 50 × 4.6 mm size. HPLC elution gradient: 0–0.5 min 97% A, 0.5–2.0 min gradient to 100% B, 2.0–3.5 min 100% B, 3.5–3.6 min gradient to 97% A, 3.6–4.1 97% A. Compound transition 429.156 to 174.1 for AdipoRon and 665.289 to 135.2 for AdipoRonPEG5.

Row | SMILES | solubility in water (LC-MS/MS, mean ± SD) [µg/mL] | solubility (LC-MS/MS, mean ± SD) [µg/mL] | times more soluble in water than the parent molecule (vs AdipoRon)
1 | O=C(COc1ccc(C(=O)c2ccccc2)cc1)NC1CCN(Cc2ccccc2)CC1 [AdipoRon] | 9 (≈ 21 µM) | 8.99 ± 0.15 (≈ 21 µM) | 
2 | O=C(COc1ccc(C(=O)c2ccccc2)cc1)NC1CCN(Cc2ccc(OCCOCCOCCOCCOCCO)cc2)CC1 [AdipoRonPEG5] |  | 910 ± 36 (≈ 1370 µM) | about 100 times
